ChEMBL document CHEMBL3286119, “Biarylmethoxy Nicotinamides As Novel and Specific Inhibitors of Mycobacterium tuberculosis” (ACS Med Chem Lett, 2014)
Active and inactive are the calls of the source.

Assays:
Assay type in all cases: functional, organism-based
[1] = system: Mycobacterium tuberculosis; assay: Antimicrobial activity against isoniazid-resistant Mycobacterium tuberculosis ATCC 35822 after 2 to 3 weeks
[2] = system: Mycobacterium tuberculosis; assay: Antimicrobial activity against streptomycin-resistant Mycobacterium tuberculosis ATCC 35820 after 2 to 3 weeks
[3] = system: Mycobacterium tuberculosis; assay: Antimicrobial activity against rifampicin-resistant Mycobacterium tuberculosis 19000 after 2 to 3 weeks
[4] = system: Mycobacterium tuberculosis; assay: Antimicrobial activity against ethionamide-resistant Mycobacterium tuberculosis 1700 after 2 to 3 weeks

Measured: Activity

NC(=O)c1cccnc1OCc1ncc(-c2ccc(OCCCF)cc2Cl)cn1
active: all assays above

CC(C)OCCOc1ccc(-c2cnc(COc3ncccc3C(N)=O)nc2)c(Cl)c1
active: all assays above

COCCOc1ccc(-c2ccc(COc3ncccc3C(N)=O)nc2)c(C)c1
active: all assays above
